The values below come from patent US20220064238A1, “Methods And Compositions For Modifying Transcription Factor Activity by Targeting The Human Mediator Complex Using Cell Penetrating Memetic Peptides And Methods of Treating Cancer Using The Same” (The Regents of the University of Colorado, a body corporate, priority 2020, published 2022).

Bridge positions count the residues as written; N and C are the ends. Square brackets hold non-standard residues; d marks the D form. Peptide text beside a SMILES is read from it. R8 = C=CCCCCCC[C@@](C)(N)C(=O)O; S5 = C=CCCC[C@](C)(N)C(=O)O

The subject of data set [1] is pol II occupancy at the p21 locus. The data set is described as follows: ChIP of RNA polymerase II occupancy at CDKN1A (p21). In kind it is cell-based. Particulars: 3 h post-Nutlin, Ser5-phosphorylated pol II ChIP. From the text:
FIGS. 13A-B. Summary of ChIP experiments, showing that RNA polymerase II occupancy at the p53 target gene CDKN1A (p21) is reduced in cells treated with the bivalent peptide (peptide). A) Time course following Nutlin induction, to determine ideal time point to probe pol II occupancy at the p21 locus. […] However, pol II occupancy is reduced in cells treated with the bivalent peptide. […] Pol II phosphorylated at serine-5 of its C-terminal domain was used for ChIP analysis, because this is a proxy for initiating pol II at gene promoters (start sites). Data represent biological triplicates. Similar results were observed genome-wide, using ChIP-seq, although the timing of induction across p53 target genes will vary (data not shown).

Data set [2] relates to p53 target genes in HCT116 cells. Briefly: RNA-Seq / GSEA in HCT116 cells, p53 pathway genes. In kind it is cell-based, human. Here is the method:
To circumvent this issue, we used a well-tested electroporation protocol to enhance cell uptake of the bivalent peptide (see Methods). HCT116 cells were evaluated either in the presence of bivalent peptide or vehicle (water), with or without Nutlin-3a (FIG. 3A, B). Nutlin-3a is a small molecule that activates and stabilizes p53 by inhibiting MDM2, a repressor of p53. […] After 3 h Nutlin-3a treatment (or DMSO control, ±bivalent peptide), nuclear RNA was isolated and biological replicate RNA-Seq libraries were prepared (FIG. 9A; Table 1).
A confounding issue with these experiments was that cellular uptake of the bivalent peptide could not be accurately measured and could potentially vary from experiment-to-experiment. To assess this possibility more thoroughly, we completed an additional round of RNA-Seq experiments in control vs. Nutlin-treated HCT116 cells (FIG. 9B; Table 1). These additional experiments (RNA-Seq experiment 2) were completed with a slightly modified protocol that included treatment in serum-free media as an effort to enhance peptide uptake. Importantly, the data from RNA-Seq experiment 2 (biological triplicate; FIG. 10) were consistent with the first series of biological replicates (RNA-Seq experiment 1; FIG. 3C-E) and in each case, repression of p53-dependent transcription by the bivalent peptide tracked with Nutlin induction levels (FIG. 9CE). Nutlin-induced activation of p53 target genes was inhibited in the presence of the bivalent peptide, providing further evidence that the bivalent peptide blocks p53 response in cells. However, the scope and magnitude of the effect was reduced in this second, independent set of RNA-Seq experiments (e.g. compare FIG. 3C, D & FIG. 10C, D). This broadly consistent but variable magnitude effect can also be seen from RNA-Seq reads at specific p53 target genes (RNA-Seq experiment 1, FIG. 4A, B; RNA-Seq experiment 2, FIG. 4C, D). The overall p53 response to Nutlin-3a was reduced in RNA Seq experiment 2 (GSEA p53 pathway NES=2.76 in RNA-Seq experiment 1 vs. NES=1.59 in RNASeq experiment 2), which therefore reduced the transcriptional impact of the bivalent peptide. However, we cannot rule out variable cellular uptake of the bivalent peptide as a contributing factor.
Electroporation of bivalent peptide into HCT116 cells (RNA-Seq experiment 1): Two 6-well plates (HCT116 cells) were grown to about 80% confluency. Cells were then trypsinized, washed with PBS, and resuspended in 150 μL Neon Buffer R. The cells were then split into two groups: No peptide and 10 μM peptide. The cells were then drawn into a 10 μL Neon pipet tip, electroporated and ejected into 2 mL of McCoy's 5A media without antibiotic. For each experiment, two cell electroporation aliquots were added to media containing either 0.1% DMSO (control) or 10 μM Nutlin-3a (in DMSO, to a final concentration of 0.1%). For wells containing cells electroporated with peptide, an additional 200 nM peptide was added to the well to allow for peptide uptake during the experiment. The 6-well plate was then placed back at 37° C. for 3 hours. After 3 hours, cells were scraped from the plates, transferred to a 15 mL conical vial, pelleted at 1,000×g, and washed in 10 mL phosphate buffered saline (PBS) solution. To isolate the nuclei, cells were resuspended in 10 mL lysis buffer (10 mM Tris-HCl, pH 7.4, 2 mM MgCl2, 3 mM CaCl2), 0.5% NP-40, 10% glycerol) and thoroughly mixed. The nuclei were spun down at 1,000×g for 10 minutes, the lysis buffer was removed, and 1 mL of TRIzol was added. The nuclear RNA was isolated as described in the TRIzol instructions, except an additional phenol/chloroform extraction and chloroform-only extraction were performed to reduce contaminants. RNA was precipitated and washed twice with 75% ethanol to further remove contaminants. The RNA was then converted to cDNA using the High Capacity cDNA kit from Thermo Fisher Scientific. […]

Data set [3] addresses human Mediator complex (human).
In another data set the test system is cells. The note with it: prior analysis; cited from earlier work.
The next data set relates to basal transcription. Briefly: In vitro transcription on naked DNA templates, basal (no activator). In kind it is biochemical, human. The note with it: no GAL4-p53, naked DNA templates. The source says: To screen peptides for the ability to selectively block p53-dependent transcription, we required an assay that enabled p53-dependent activation but that could also support basal (i.e. activator-independent) transcription. The present inventors had previously established an in vitro transcription assay (using highly purified human factors (FIG. 1A). A key feature of this assay was that both activated and basal transcription could be reconstituted on naked DNA templates (i.e. DNA templates not assembled into chromatin). To adapt this assay for purposes of measuring basal vs. p53-activated transcription, we generated templates with Gal4 DNA binding sites upstream of the adenovirus major late promoter sequence (FIG. 5A, B). Upon titration of a Gal4 DNA Binding Domain (DBD)-p53 Activation Domain (AD; residues 1-70) fusion protein into this system, we observed pol II-dependent transcription that was dependent on p53AD and Mediator (FIG. 5C). Reactions containing Gal4-p53AD generally produced about two- to four-fold more transcripts compared to reactions with no activator (FIG. 5C). Because experiments without Gal4-p53AD produced a low level of “basal” transcription that could be quantitated, this system allowed assessment of both p53-activated and basal transcription. […]

Sequence of GST-VP16AD (residues 411-490) (P08515 1-218, tags or fused parts left off): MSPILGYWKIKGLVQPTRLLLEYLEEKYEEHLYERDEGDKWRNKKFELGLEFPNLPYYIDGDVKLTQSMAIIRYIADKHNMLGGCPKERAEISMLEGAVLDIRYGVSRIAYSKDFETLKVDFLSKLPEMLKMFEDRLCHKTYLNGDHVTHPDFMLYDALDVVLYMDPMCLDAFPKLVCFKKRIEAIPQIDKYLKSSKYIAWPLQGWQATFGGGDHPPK

For `COc1ccc(C2=N[C@@H](c3ccc(Cl)cc3)[C@@H](c3ccc(Cl)cc3)N2C(=O)N2CCNC(=O)C2)c(OC(C)C)c1` [Nutlin-3a, reference compound], the “pol II occupancy at the p21 locus” value in data set [1] is given as “strongly induced pol II at the p21 locus”. The “expression of p53 target genes” value in data set [2] (Nutlin-3a 10 μM, 3 h, HCT116) is “induced expression of p53 target genes”. The “GSEA p53 pathway NES, Nutlin response without peptide” value is recorded as 2.76 in data set [2] (RNA-Seq experiment 1) and 1.59 in data set [2] (RNA-Seq experiment 2).

In data set [3], “GST-VP16AD (residues 411-490) (from UniProt P08515 1-218; P06492 411-490)” had a fold change of Mediator-bound VP16 with bivalent peptide vs. without of 1.67 fold.

For `CC(=O)N[C@@H](CCCNC(=N)N)C(=O)N[C@@H](CO)C(=O)N[C@@H](CCC(N)=O)C(=O)N[C@@H](CCC(=O)O)C(=O)N[C@@H](CCCNC(=N)N)C(=O)N[C@@H](Cc1ccccc1)C(=O)N[C@]1(C)CCCCCCC=CCCC[C@@](C)(C(=O)N[C@@H](CCCNC(=N)N)C(=O)N[C@@H](CCCNC(=N)N)C(N)=O)NC(=O)[C@H](CC(C)C)NC(=O)[C@H](CCCNC(=N)N)NC(=O)[C@H](CCCCN)NC(=O)[C@H](Cc2c[nH]c3ccccc23)NC(=O)[C@H](CC(C)C)NC(=O)[C@H](CC(=O)O)NC1=O` [BP1.4] (Ac-RSQERF[R8]DLWKRL[S5]RR-NH2; staple 7-14; C-terminus assumed), the cellular uptake entry in the data set on cells is listed as “not effectively taken up by cells”.

For “BP1.5: N-acetylated hydrocarbon-stapled penta-arg p53AD1 mimic, SEQ ID NO. 5 RRETFZDRWKRLXRN”, the “effect on basal transcription, initial screen” value with basal transcription (5 μM peptide) was “did not affect basal transcription”. The “effect on basal transcription, follow-up experiments” value in the data set with basal transcription was “negatively affected basal transcription to some degree”.
